The target of test [1] is T1, HPV-11 E1 (Human papillomavirus 11, UniProt P04014).
T1 construct: polyhistidine; made in house; host or cells: baculovirus-infected insect cells
Briefly: E1 ATPase SPA kinetic analysis (Km/Ki). In kind it is biochemical, human papilloma virus. The source says:
Polyhistidine-tagged HPV-11 E1 was expressed in baculovirus-infected insect cells and purified by Ni-affinity chromatography as described in WO 99/57283 (incorporated herein by reference).
ATPase time-courses were run at different concentrations of ATP in order to determine the kinetic parameter Km(ATP) for HPV-11 E1. Reactions were run under similar conditions in both experiments, using the procedures given in Examples 1 and 2, except that the concentration of Igepal-CA630 was 0.01% rather than 0.005% and with experiment-specific changes noted below. The E1 concentration was 2 nM and the ATP concentrations ranged from 3-75 μM (TLC) or 2-50 μM (SPA), with the MgOAc concentration equal to the ATP concentration plus 0.5 mM. Stock solutions of ATP at each concentration were obtained by diluting the highest concentration solution with buffer containing 0.5 mM MgOAc; thus a constant ratio of radiolabeled to unlabeled ATP was used for all reactions. Reaction rates were measured by taking time-points from 10 or 20 to 120 minutes. To insure initial velocity conditions, time-points giving greater than 20% conversion were not used for analysis.
Total reaction volumes were 150 μL. For each time-point, 20 μL of reaction mixture was removed and combined with 40 μL of ammonium molybdate/SPA bead mixture followed by 80 μL of CsCl/citric acid. All reactions were run in triplicate. Plates were counted after overnight incubation. At the last time-point, an additional 20 μL aliquot was removed and combined with 10 μL 0.5 M EDTA. In this case, the conversion of ATP to phosphate was quantified by TLC, and the concentration of phosphate determined by TLC was compared to the cpm from the SPA procedure, after subtraction of blanks in both cases. The relationship between phosphate concentration and cpm is linear and the slope of the line was used to convert cpm values from SPA detection to concentration of phosphate produced. Rates of phosphate production at each ATP concentration were fit by nonlinear regression to the Michaelis-Menten equation using the program Grafit (V 3.01, R. Leatherbarrow).
The γ-thio phosphate analog of ATP inhibits many ATPases by a competitive mechanism. Experimental determination of the mechanism of inhibitor action requires measuring initial velocities for a number of substrate and inhibitor concentrations. The number of data points needed (several hundred) and the precision required for this experiment mean that performing the experiment by TLC detection is much more difficult and tedious. The SPA procedure works well, however. For this experiment, ATP concentrations of 5, 10, 20 and 40 μM were used, along with inhibitor concentrations of 0, 3, 6, 12 and 24 μM. Reactions were run as described for Example 9 (SPA detection). Data were processed as above and fit by nonlinear regression to an equation for competitive inhibition using GraFit. […] The plot was generated in Excel using the fitted parameters for the lines and the experimental values for points. For comparison, the data were also fit to an equation for non-competitive inhibition (equal binding of inhibitor to enzyme and enzyme-substrate complexes). […] Because of the quality of the data obtained it is possible to observe a systematic deviation between the experimental and fitted values for this second mechanism, especially at higher inhibitor concentrations.

The target in test [2] is HPV-6a ATPase activity (HPV-6 E1) (Human papillomavirus type 6a, UniProt Q84293). Briefly: E1 ATPase scintillation proximity assay, IC50 curves. The format is biochemical, human papilloma virus. To be noted: nonlinear regression; 1 μM ATP, 6 nM HPV-6 E1, 75 minutes, SPA detection; read-out: IC50 for inhibition of HPV-6a ATPase activity. On the procedure: Radiolabeled [γ-^33P]ATP (NEN) was prepared upon receipt by diluting it 100-fold in the reaction buffer and storing it at −80° C. Material stored in this way was good for greater than one month. E1 ATPase reactions were run in a buffer consisting of 20 mM HEPES, pH 7.5, 0.05 mM EDTA and 1 mM DTT, and 0.05% Igepal CA-630 (equivalent to Nonidet P40). Volumes and concentrations given below are typical, but these can be varied somewhat with minimal effect on results, as shown in later examples. One μM ATP (Amersham Pharmacia) and 500 μM MgOAc were mixed with [γ-^33P]ATP at 100-fold dilution from the stored material (10,000 dilution from the stock), or approximately 1 nCi/μL when fresh. The actual ATP concentration contributed by [γ-^33P]ATP was approximately 1 nM; this amount could be reduced further if necessary. […]
Chain of HPV-6a ATPase activity (HPV-6 E1) (Q84293 whole entry): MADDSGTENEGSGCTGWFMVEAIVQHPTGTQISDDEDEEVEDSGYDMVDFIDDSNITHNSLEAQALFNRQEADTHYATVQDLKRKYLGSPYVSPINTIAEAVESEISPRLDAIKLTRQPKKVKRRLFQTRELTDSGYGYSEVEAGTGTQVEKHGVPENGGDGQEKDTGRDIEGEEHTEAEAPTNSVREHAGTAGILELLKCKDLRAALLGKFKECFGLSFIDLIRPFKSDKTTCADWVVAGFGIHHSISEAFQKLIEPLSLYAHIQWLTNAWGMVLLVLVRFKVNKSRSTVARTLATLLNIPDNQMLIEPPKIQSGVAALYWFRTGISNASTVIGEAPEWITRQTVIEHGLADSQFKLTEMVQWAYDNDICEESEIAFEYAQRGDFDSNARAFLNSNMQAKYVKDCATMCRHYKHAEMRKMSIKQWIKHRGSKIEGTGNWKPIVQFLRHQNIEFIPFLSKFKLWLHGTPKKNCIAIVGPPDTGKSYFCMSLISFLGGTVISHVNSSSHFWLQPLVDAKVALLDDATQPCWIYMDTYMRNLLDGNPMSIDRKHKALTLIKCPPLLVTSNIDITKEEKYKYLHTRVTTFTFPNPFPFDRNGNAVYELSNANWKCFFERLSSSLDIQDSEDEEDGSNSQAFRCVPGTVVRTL
At the desired time, 40 μL reactions were stopped by adding 20 PL of a SPA bead-AmMo mixture. […] The extent of phosphate production was then determined by scintillation counting using the TopCount (Packard). If desired, cpm can be converted to phosphate concentration by comparison of SPA results to those determined by TLC (see below) for identical reactions. […]
All solutions are made in the assay buffer described in Example 3 except that the assay buffer also contained 0.005% Igepal CA-630. […] After mixing briefly, plates were left for 90 minutes and then counted on a TopCount. […]

Data on two molecules can be found in patent US6852501B2, “Methods for determining ATPase activity and uses thereof” (Boehringer Ingelheim (Canada) Ltd., priority 1999, dated 2005).

Where two headings read alike, the source gives them in different places.

T1 sequence (P04014 whole entry): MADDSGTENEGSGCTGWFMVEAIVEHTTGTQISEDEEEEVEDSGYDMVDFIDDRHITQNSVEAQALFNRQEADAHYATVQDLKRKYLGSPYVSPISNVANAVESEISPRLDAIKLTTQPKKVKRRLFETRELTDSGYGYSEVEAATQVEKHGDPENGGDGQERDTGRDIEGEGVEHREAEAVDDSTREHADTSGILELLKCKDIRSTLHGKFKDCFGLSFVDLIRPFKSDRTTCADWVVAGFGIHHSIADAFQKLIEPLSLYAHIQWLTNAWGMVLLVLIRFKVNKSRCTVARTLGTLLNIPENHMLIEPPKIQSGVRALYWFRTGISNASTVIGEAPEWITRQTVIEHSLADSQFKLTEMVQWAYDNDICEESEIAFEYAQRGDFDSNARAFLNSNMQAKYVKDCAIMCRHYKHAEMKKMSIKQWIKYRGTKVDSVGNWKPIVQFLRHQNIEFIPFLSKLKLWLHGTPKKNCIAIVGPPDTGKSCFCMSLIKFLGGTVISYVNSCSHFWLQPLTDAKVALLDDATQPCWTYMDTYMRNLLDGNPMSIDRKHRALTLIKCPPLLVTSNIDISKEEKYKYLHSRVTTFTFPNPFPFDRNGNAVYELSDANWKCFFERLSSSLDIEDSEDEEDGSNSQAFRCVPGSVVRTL

On to `Nc1ncnc2c1ncn2[C@@H]1O[C@H](COP(=O)(O)OP(=O)(O)OP(=O)(O)O)[C@@H](O)[C@H]1O` [ATP], for which the Michaelis-Menten constant (Km) in test [1] (background statement, measured in the absence of DNA, read-out: Km (ATP) of the HPV-11 E1 ATPase) was around 10 µM; in test [1] (fit to competitive inhibition, read-out: Km(ATP)), 6.7 ± 0.7 µM; in test [1] (fit to non-competitive inhibition, read-out: Km(ATP)), 12 ± 2 µM.

Regarding “adenosine-5′-O-(3-thiotriphosphate) [ATP-γ-S]”, the IC50 in test [2] amounted to 8 ± 1.6 µM. Moreover, the mechanism of inhibition result in test [1] (comparison of competitive and noncompetitive fits) is “the competitive model is more appropriate”. In test [1] (fit to non-competitive inhibition (equal binding to enzyme and enzyme-substrate complexes)), the Ki(ATP-γ-S) was 16 ± 2 µM.
